Several values for one entry are separate records, joined by “and”; a condition that tells them apart may be missing. Equal values may be shown once. Activity calls are given as the source filed them. The rule behind the calls is not given here.
Tested on: not listed separately
Assay: M. tuberculosis H37Rv growth inhibition, dose response, strain H37Rv (AID 489010)
Details: M. tuberculosis H37Rv growth inhibition; at 100 µM (top of the series)

Compound | growth inhibition
CC(=O)N1CCC2(CC1)C(C#N)=C(N)Oc1n[nH]c(CSc3ccc(C)cc3)c12 | 1.12% (inactive)
O=C1CC(CSc2ccc(Cl)cc2)=NN1 | -0.64% (inactive)
O=C(Cc1cc(=O)[nH][nH]1)N/N=C/c1c(Cl)cccc1Cl | 9.07% (inactive)
O=C(Cc1cc(=O)[nH][nH]1)N/N=C/c1c(F)cccc1Cl | 1.68% (inactive)
COc1ccc(/C=C2/C(=O)N(c3ccccc3)N=C2C)cc1OC | 3.28% (inactive)
O=C(Cc1cc(=O)[nH][nH]1)N/N=C/c1cccc2ccccc12 | 0.57% (inactive)
Fc1ccc(Nc2nc(Oc3ccccc3F)nc(N3CCCC3)n2)cc1 | -4.07% (inactive)
COc1ccc(N(C(=O)COc2cccc(C)c2)S(=O)(=O)c2ccc(C)cc2)cc1 | 16.3% (inactive)
O=C(Cc1cc(=O)[nH][nH]1)N/N=C/c1cccc(Cl)c1Cl | -0.74% (inactive) and -0.13% (inactive)
COc1ccc(-c2[nH]nc3c2C(c2ccoc2)C(C#N)=C(N)O3)cc1 (stereo not drawn) | -0.09% (inactive)
N#CC(C#N)C(c1ccsc1)c1c(-c2ccccc2)[nH][nH]c1=O (stereo not drawn) | -3.85% (inactive)
COc1cccc(-c2[nH]nc3c2C(c2ccsc2)C(C#N)=C(N)O3)c1 (stereo not drawn) | 5.86% (inactive)
COc1ccc(/C=C2/C(=O)N(c3ccccc3)N=C2C)c(OC)c1 | 4.59% (inactive)
CCOC(=O)C1CCN(C(=O)c2c(C)oc3c2C(=O)c2ccccc2C3=O)CC1 | 27.9% (inactive)
O=C1NC2=C(CCc3ccccc32)C(c2ccccc2)N1 (stereo not drawn) | 1.42% (inactive)
O=C(CSCc1cc(=O)[nH][nH]1)Nc1ccc(F)cc1 | 0.76% (inactive)
CCCc1c(-c2ccc(O)cc2)nn(-c2ccc(O)cc2)c1-c1ccc(O)cc1 | 6.41% (inactive)

Compound | growth inhibition
N#CC1=C(N)Oc2n[nH]c(-c3cccs3)c2C1c1cccs1 (stereo not drawn) | -0.42% (inactive)
N#CC1=C(N)Oc2n[nH]c(-c3ccccc3)c2C1c1cccc(OC(=O)N2CCOCC2)c1 (stereo not drawn) | -2.13% (inactive)
CCCCCCOC(=O)c1ccc(OC(=O)c2cccnc2)cc1 | 26.1% (inactive)
Cc1nn(C)c(C)c1C1C(C#N)=C(N)Oc2n[nH]c(C)c21 (stereo not drawn) | 2.21% (inactive)
CC(C)CCn1c(N)c(C(=O)NCc2cccs2)c2nc3ccccc3nc21 | -0.29% (inactive)
Cc1ccsc1/C=N/NC(=O)Cc1cc(=O)[nH][nH]1 | -3.09% (inactive)
Cc1cc(-c2[nH]nc3c2C(c2ccsc2)C(C#N)=C(N)O3)c(C)s1 (stereo not drawn) | 3.11% (inactive)
CSCCC1C(C#N)=C(N)Oc2n[nH]c(-c3cccs3)c21 (stereo not drawn) | 11.2% (inactive)
N#CC1=C(N)Oc2n[nH]c(-c3cccs3)c2C1c1ccsc1 (stereo not drawn) | 2.91% (inactive)
O=C(Cc1cc(=O)[nH][nH]1)N/N=C/C=C/c1ccccc1 | -3.45% (inactive)
C/C(=N\NC(=O)Cc1cc(=O)[nH][nH]1)c1cccc([N+](=O)[O-])c1 | 2.86% (inactive)
O=C(Cc1cc(=O)[nH][nH]1)N/N=C/c1ccccc1[N+](=O)[O-] | -0.39% (inactive)
N#Cc1ccc(-n2c(-c3ccccc3)nnc2-c2ccccc2)cc1C#N | 6.39% (inactive)
CCOc1ccccc1C1C(C#N)=C(N)Nc2onc(-c3ccccc3)c21 (stereo not drawn) | -3.07% (inactive)
O=c1cc(-c2ccc(Cl)c(Cl)c2)[nH][nH]1 | 1.79% (inactive)
CC1(C)N=C(SCC(=O)Nc2ccc(Cl)cc2)C(c2ccc(Cl)cc2)=N1 | 2.13% (inactive)

Tested on: M. tuberculosis H37Rv growth inhibition
Assay: as above
Details: not given

Compound | IC90
Cc1c(/C=N/Nc2nc3ccccc3[nH]2)c2ccccc2n1C | 16.2 µM
CC(=O)N(Cc1ccc(F)cc1)C1=C(NCCc2ccccc2)C(=O)c2ccccc2C1=O | 1.31 µM
C(=N\Nc1nncc2ccccc12)/c1ccccn1 | 19.8 µM

Same assay, conditions: measured here: H37Rv growth IC50

Compound | IC50
Cc1ccc(-n2nnc3c(SCC(=O)NCC4CCCO4)ncnc32)cc1 (stereo not drawn) | 46.4 µM
COc1cc2c(cc1OC)C(c1cc(Br)ccc1F)N(C(=O)CCl)CC2 (stereo not drawn) | 5.91 µM
Cc1oc2c(c1C(=O)N1CCOCC1)C(=O)c1ccccc1C2=O | 18 µM
Cc1cccc(Cn2nnc3c2C(=O)c2ccccc2C3=O)c1 | 13.7 µM
Cc1ccc(C(=O)OCn2ncc(Cl)c(Cl)c2=O)cc1 | 42.3 µM
CCCCCCCCCCn1c2c(c(=N)c3c1CCC3)CCC2 | 2.16 µM
CN(C1=C(NC(=O)c2ccc(Cl)cc2)C(=O)c2ccccc2C1=O)c1ccccc1 | 9.43 µM
COC(=O)c1sc(-c2ccc(Cl)cc2)cc1NC(=O)/C=C/C(=O)O | 41.8 µM
COC(=O)c1c(C)oc2ccc(N(C(=O)c3ccncc3)S(=O)(=O)c3ccc4ccccc4c3)cc12 | 66.9 µM
Cc1nc2c(=O)n(C)c(=O)nc-2n(C)n1 | 1.9 µM
CC(CCc1ccccc1)NC(=O)COC(=O)c1cc(NS(=O)(=O)c2ccc(Cl)c([N+](=O)[O-])c2)ccc1O (stereo not drawn) | > 100 µM
O=C(NC1CCCCC1)C(c1cccnc1)N(C(=O)CCl)c1cccc(Cl)c1 (stereo not drawn) | 15.5 µM
CC(=O)n1cc(N(C(=O)CCl)c2ccc(C)cc2)c2ccccc21 | 1.95 µM
Fc1ccc(Oc2nc(-c3ccccc3)nnc2C(F)(F)F)cc1 | > 100 µM
Cc1ccc(N(C(=O)CCl)C(C(=O)NC2CCCCC2)c2cccnc2)cc1C (stereo not drawn) | 20.5 µM
CCN(CC)CCNC(=O)c1ccc2c(c1NCCO)C(=O)c1ccccc1C2=O | > 100 µM
Cc1nn(-c2ccccc2)c(Cl)c1CN(C(=O)CCl)c1ccc(Cl)cc1 | 1.53 µM

Source: PubChem BioAssay AID489010 (Southern Research Specialized Biocontainment Screening …, 2010)
